Assay results: patent US20160264593A1 (priority 2013, published 2016)
Read-outs that look alike come from different tables or passages of the source.

Experiment: Pharmacokinetic study of 157 (and metabolite endothal) in SD rats, iv and po; plasma, liver, brain
Assay type: in vivo
Settings: for Tmax: read-out: Tmax; for MRT last: read-out: MRT (0-t); for half-life: read-out: T1/2 (converted); for concentration at 2 h / 157 brain concentration: 2 hr
Description: The blood, liver and brain tissue samples were collected at predetermined times from rats. […] Compound were diluted shortly before use in 4% sodium bicarbonate for sterile injection (this is the standard pediatric solution of NaHCO3 with a pH of about 8.5).
Compound 153 was freshly prepared by diluting the drugs shortly before use in 4% sodium bicarbonate for sterile injection (this is the standard pediatric solution of NaHCO3 with a pH of about 8.5). The final concentrations of 153 solutions were 0.25 mg/mL. The 153 solutions were administered via iv or po route at dose volume of 5 ml/kg according to the latest body weight. Compound 157 was freshly prepared by diluting the drugs shortly before use in 4% sodium bicarbonate for sterile injection (this is the standard pediatric solution of NaHCO3 with a pH of about 8.5). The final concentrations of […] solutions were 0.3 mg/mL. The 157 solutions were administered via iv or po route at dose volume of 5 ml/kg according to the latest body weight.
Twelve (12) female SD rats per group were dosed by iv with 153 or 157. The rats were fasted overnight prior to dosing, with free access to water. Foods were withheld for 2 hours post-dose. Blood, liver and brain tissue samples in two animals each group were collected at each time point, within 10% of the scheduled time for each time point. Two extra animals were used for analytic method development.
Blood (>0.3 mL) were collected via aorta abdominalis in anaesthetic animals into tubes containing heparin at 15 min, 1, 2, 6, 10 and 24 hours after iv administration. Liver and brain tissues were collected immediately after animal death. The liver and brain tissues were excised and rinsed with cold saline to avoid blood residual. Upon collection, each sample was placed on ice and the blood samples were subsequently centrifuged (4° C., 11000 rpm, 5 min) to separate plasma. The obtained plasma, liver and brain tissue samples were stored at −70° C. until LC-MS/MS analysis.
Two (2) female SD rats per group were dosed by po with 153 or 157. The rats were fasted overnight prior to dosing, with free access to water. Foods were withheld for 2 hours post-dose. Blood samples (>0.3 mL) were collected via aorta abdominalis in anaesthetic animals into tubes containing heparin at 30 min, 1, 2, 6, 10 and 24 hours after po administration.
To each sample, 30 μL IS-D (for blank samples, 20 μL acetonitrile:water (1:1) was added) and 300 μl acetonitrile was added. The sample mixture was vortexed for approximately 3 min. After centrifugation at 10000 rpm for 5 min at 4° C., 100 μL of the upper layer was transferred to a new tube and added 200 μL 0.4% formic acid in water (pH6.0). The mixture was vortexed for approximately 3 min before injected onto the LC/MS/MS system for analysis.
On the day of the assay, the frozen liver and brain samples were thawed unassisted at room temperature. An about 200 mg weighed sample of each thawed tissue was placed into a plastic tube with water (0.6 mL) to facilitate homogenization. Tissue processing was conducted using a homogenizer for approximately 1 min, 100 μl homogenate was transferred into a fresh Eppendorf tube. To each tube, 50 μL IS-D was added and mixed. Then 500 μl acetonitrile was added and the sample mixture was vortexed for approximately 3 min. After centrifugation at 10000 rpm for 5 min at 4° C., 100 μL of the upper layer was transferred to a new tube and evaporate the supernatant to dryness at 35° C. Reconstitute the residue with 200 μL of 0.4% formic acid in water (pH 6.0), and vortex for 3 min, submit for LC-MS/MS analysis.
Frozen unknown plasma samples were completely thawed at room temperature and vortexed thoroughly. With a pipette, 50 μL of plasma was transferred into a 2.0 mL Eppendorf tube. 50 μL of 0.1N HCl and 800 μL ethyl acetate were added into each sample. The sample mixture was vortexed for approximately 3 min.

[1] = female, Sprague-Dawley (SD), rat, in vivo, iv, 1.5 mg/kg, 157 in Brain, iv 1.5 mg/kg, Mean
[2] = female, Sprague-Dawley (SD), rat, in vivo, iv, 1.5 mg/kg, 157 in Brain, iv 1.5 mg/kg, rat 1
[3] = female, Sprague-Dawley (SD), rat, in vivo, iv, 1.5 mg/kg, 157 in Brain, iv 1.5 mg/kg, rat 2
[4] = female, Sprague-Dawley (SD), rat, in vivo, iv, 1.5 mg/kg, 157 in Liver, iv 1.5 mg/kg, Mean
[5] = female, Sprague-Dawley (SD), rat, in vivo, iv, 1.5 mg/kg, 157 in Liver, iv 1.5 mg/kg, rat 1
[6] = female, Sprague-Dawley (SD), rat, in vivo, iv, 1.5 mg/kg, 157 in Liver, iv 1.5 mg/kg, rat 2
[7] = female, Sprague-Dawley (SD), rat, in vivo, iv, 1.5 mg/kg, iv 1.5 mg/kg, Mean, read-out: 157 plasma concentration
[8] = female, Sprague-Dawley (SD), rat, in vivo, iv, 1.5 mg/kg, iv 1.5 mg/kg, Rat 1, read-out: 157 liver concentration
[9] = female, Sprague-Dawley (SD), rat, in vivo, iv, 1.5 mg/kg, iv 1.5 mg/kg, Rat 1, read-out: 157 plasma concentration
[10] = female, Sprague-Dawley (SD), rat, in vivo, iv, 1.5 mg/kg, iv 1.5 mg/kg, Rat 2, read-out: 157 liver concentration
[11] = female, Sprague-Dawley (SD), rat, in vivo, iv, 1.5 mg/kg, iv 1.5 mg/kg, Rat 2, read-out: 157 plasma concentration
[12] = female, Sprague-Dawley (SD), rat, in vivo, po, 1.5 mg/kg, 157 in plasma, PO 1.5 mg/kg, rat 2
[13] = female, Sprague-Dawley (SD), rat, in vivo, po, 1.5 mg/kg, PO 1.5 mg/kg, Mean, read-out: 157 plasma concentration
[14] = female, Sprague-Dawley (SD), rat, in vivo, po, 1.5 mg/kg, PO 1.5 mg/kg, Rat 1, read-out: 157 plasma concentration
[15] = female, Sprague-Dawley (SD), rat, in vivo, po, 1.5 mg/kg, PO 1.5 mg/kg, Rat 2, read-out: 157 plasma concentration

CCCCCCCOC(=O)C1C2CCC(O2)C1C(=O)N1CCN(C)CC1 (centres unmarked) [Compound 157, 3-(4-Methylpiperazine-1-carbonyl)-7-oxa-bicyclo[2,2,1]heptane-2-carboxylic acid heptyl ester]
concentration at 1 h (female, SD, rat, in vivo, iv, 1.5 mg/kg, iv 1.5 mg/kg, Rat 2, read-out: 157 liver concentration): 17.6 ng/g | AUC (female, SD, rat, in vivo, po, 1.5 mg/kg, 157 po 1.5 mg/kg, read-out: AUC of 157 in plasma): 3.2 ng·h/mL | Cmax (female, SD, rat, in vivo, po, 1.5 mg/kg, 157 po 1.5 mg/kg, read-out: Cmax of 157 in plasma): 6.14 ng/mL | AUC(0-t) (female, SD, rat, in vivo, 157 iv 1.5 mg/kg, read-out: AUClast of 157 in plasma): 47.2 ng·h/mL | bioavailability (female, SD, rat, in vivo, 157 po vs iv 1.5 mg/kg, read-out: BA (bioavailability) of 157): 6.98% | Tmax (female, Sprague-Dawley (SD), in vivo, 157 in plasma, PO 1.5 mg/kg, rat 2): 30 min | Cmax (female, Sprague-Dawley (SD), rat, in vivo, iv, 1.5 mg/kg, 157 in Brain, iv 1.5 mg/kg, Mean, read-out: Cmax): 60 ng/g | MRT last [1]: 18.8 min | half-life [1]: 9.72 min | Cmax (female, Sprague-Dawley (SD), rat, in vivo, iv, 1.5 mg/kg, 157 in Brain, iv 1.5 mg/kg, rat 1, read-out: Cmax): 60 ng/g | MRT last [2]: 18.3 min | half-life [2]: 9.18 min | Cmax (female, Sprague-Dawley (SD), rat, in vivo, iv, 1.5 mg/kg, 157 in Brain, iv 1.5 mg/kg, rat 2, read-out: Cmax): 60 ng/g | MRT last [3]: 19.4 min | half-life [3]: 10.2 min | Cmax (female, Sprague-Dawley (SD), rat, in vivo, iv, 1.5 mg/kg, 157 in Liver, iv 1.5 mg/kg, Mean, read-out: Cmax): 297 ng/g | MRT last [4]: 35.3 min | half-life [4]: 48.8 min | Cmax (female, Sprague-Dawley (SD), rat, in vivo, iv, 1.5 mg/kg, 157 in Liver, iv 1.5 mg/kg, rat 1, read-out: Cmax): 337 ng/g | MRT last [5]: 31.9 min | half-life [5]: 27.3 min | Cmax (female, Sprague-Dawley (SD), rat, in vivo, iv, 1.5 mg/kg, 157 in Liver, iv 1.5 mg/kg, rat 2, read-out: Cmax): 257 ng/g | MRT last [6]: 38.8 min | half-life [6]: 70.2 min | concentration at 0.25 h [7]: 115 ng/mL | concentration at 0.25 h [8]: 337 ng/g | concentration at 0.25 h [9]: 116 ng/mL | concentration at 0.25 h [10]: 257 ng/g | concentration at 0.25 h [11]: 114 ng/mL | concentration at 1 h [7]: 3.12 ng/mL | concentration at 1 h [9]: 2.67 ng/mL | concentration at 1 h [11]: 3.57 ng/mL | concentration at 2 h (female, Sprague-Dawley (SD), rat, in vivo, iv, 1.5 mg/kg, iv 1.5 mg/kg, Mean, read-out: 157 liver concentration): 8.06 ng/g | concentration at 2 h [7]: 0.524 ng/mL | concentration at 2 h [8]: 6.4 ng/g | concentration at 2 h [9]: 0.491 ng/mL | concentration at 2 h [10]: 9.72 ng/g | concentration at 2 h [11]: 0.556 ng/mL | AUC(0-inf) [12]: 3 ng·h/mL | AUC (female, Sprague-Dawley (SD), rat, in vivo, po, 1.5 mg/kg, 157 in plasma, PO 1.5 mg/kg, rat 2, read-out: AUC): 3 ng·h/mL | Cmax (female, Sprague-Dawley (SD), rat, in vivo, po, 1.5 mg/kg, 157 in plasma, PO 1.5 mg/kg, rat 2, read-out: Cmax): 6.35 ng/mL | MRT last [12]: 54.2 min | half-life [12]: 22.2 min | concentration at 0.5 h (female, Sprague-Dawley (SD), rat, in vivo, po, 1.5 mg/kg, PO 1.5 mg/kg, Mean): 6.14 ng/mL | concentration at 0.5 h (female, Sprague-Dawley (SD), rat, in vivo, po, 1.5 mg/kg, PO 1.5 mg/kg, Rat 1): 5.92 ng/mL | concentration at 0.5 h (female, Sprague-Dawley (SD), rat, in vivo, po, 1.5 mg/kg, PO 1.5 mg/kg, Rat 2): 6.35 ng/mL | concentration at 1 h [13]: 1.37 ng/mL | concentration at 1 h [14]: 1.48 ng/mL | concentration at 1 h [15]: 1.26 ng/mL | concentration at 2 h [13]: 0.249 ng/mL | concentration at 2 h [14]: 0.303 ng/mL | concentration at 2 h [15]: 0.194 ng/mL | Tmax (female, Sprague-Dawley (SD), rat, in vivo, 157 in Liver, iv 1.5 mg/kg, Mean): 15 min | 157 brain concentration (iv 1.5 mg/kg, Rat 1): BLQ | 157 brain concentration (iv 1.5 mg/kg, Rat 2): BLQ | 157 liver concentration (iv 1.5 mg/kg, 10 hr, Rat 2): BLQ
